Some test systems named below: SF-539; OVCAR-5; COLO 205; OVCAR-8; KM12; HCT-15; NCI/ADR-RES; NCI-H522; U-251; K562; HCC 2998; HL-60; Hs-578T; T47D; A498; SR; MDA-MB-435; A549; SNB-75; HOP-92.
What all share (assay): DTP human tumour cell line panel, 48 h

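Protocol summary: plate cells (96-well), add compound at 5 concentrations, incubate 48 h, interpolate endpoints linearly. GI50: concentration for 50% inhibition of growth.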 The source made the active and inactive calls. No stated cut-off is given here; in the data, active = GI50 up to about 1.1 µM and inactive = higher.

Take `O=C1C(NCCc2cc(Cl)c(O)c(Cl)c2)=CC(=O)c2[nH]cnc21`: the GI50 in the assay on SF-539 was 39.5 µM (inactive); with OVCAR-5, 88.7 µM (inactive); in the assay with COLO 205, 21.2 µM (inactive); in the assay with OVCAR-8, 32.2 µM (inactive); with KM12, 35.5 µM (inactive); with HCT-15, 39.1 µM. In addition, the GI50 in the assay on NCI/ADR-RES was > 100 µM (inactive); in the assay on NCI-H522, 12.8 µM (inactive); in the assay on U-251, 39.7 µM (inactive); in the assay on K562 it was 26 µM (inactive); in the assay on HCC 2998, 38.8 µM (inactive); in the assay on HL-60, 17.4 µM (inactive). Further, the GI50 is 80 µM (inactive) in the assay on Hs-578T; 21.7 µM (inactive) in the assay with T47D; 75.7 µM (inactive) in the assay on A498; 32.6 µM (inactive) with SR; 16.7 µM (inactive) in the assay with MDA-MB-435; 33.9 µM (inactive) in the assay with A549.
With `CCCC(=O)Nc1ccc2c(c1)CN1C(=O)c3ccccc3C1=N2`, the GI50 in the assay with SNB-75 was 49.5 µM (inactive); in the assay with SF-539, > 100 µM (inactive); in the assay on OVCAR-5, > 100 µM (inactive); in the assay on COLO 205 it was > 100 µM (inactive); in the assay with OVCAR-8 it was > 100 µM (inactive); with KM12, > 100 µM (inactive). For the same molecule, the GI50 in the assay with HCT-15 was above 100 µM; in the assay on NCI/ADR-RES, > 100 µM (inactive); in the assay on NCI-H522, > 100 µM (inactive); with U-251 it was > 100 µM (inactive); in the assay on HCC 2998, > 100 µM (inactive); in the assay on HL-60, > 100 µM (inactive). Besides, the GI50 in the assay with Hs-578T, in the assay with T47D, in the assay on SR, in the assay with HOP-92, in the assay with MDA-MB-435 and in the assay with A549 was > 100 µM (inactive) each time.
Consider `COc1ccc(N2C(=O)C3ON(C(C(N)=O)c4ccccc4)C(c4ccc(-c5ccccc5)cc4)C3C2=O)cc1` (configuration not stated), for which the GI50 in the assay on SNB-75 was > 50 µM (inactive); with SF-539 it was > 50 µM (inactive); with OVCAR-5 it was > 50 µM (inactive); in the assay with COLO 205, 25.2 µM (inactive); with OVCAR-8, > 50 µM (inactive); in the assay with KM12, > 50 µM (inactive). For the same molecule, the GI50 in the assay on HCT-15 was above 50 µM; with NCI/ADR-RES, > 50 µM (inactive); in the assay with NCI-H522, 48.3 µM (inactive); in the assay with U-251 it was > 50 µM (inactive); in the assay with K562, > 50 µM (inactive); in the assay on HL-60, > 50 µM (inactive). The GI50 in the assay on Hs-578T, in the assay on T47D, in the assay on A498, with SR, with MDA-MB-435 and in the assay on A549 was > 50 µM (inactive) in each case.
In the case of `N#CCc1nc(-c2cc3ccc(O)cc3oc2=O)cs1`, the GI50 with SNB-75 is 57 µM (inactive); in the assay on SF-539 it was 69.3 µM (inactive); in the assay on OVCAR-5 it was > 100 µM (inactive); in the assay with COLO 205, > 100 µM (inactive); with OVCAR-8, > 100 µM (inactive); in the assay with KM12, 28.5 µM (inactive). Also, the GI50 with HCT-15 is 35.9 µM; in the assay on NCI/ADR-RES it was > 100 µM (inactive); in the assay on NCI-H522, > 100 µM (inactive); with U-251, 45.8 µM (inactive); with K562 it was 31.5 µM (inactive); in the assay on HCC 2998 it was 87.1 µM (inactive). Besides, the GI50 in the assay with HL-60 is 29.2 µM (inactive); in the assay on Hs-578T, 66.1 µM (inactive); with T47D, 36.7 µM (inactive); in the assay on SR it was 29.4 µM (inactive); with HOP-92, > 100 µM (inactive); in the assay with MDA-MB-435, 33.1 µM (inactive). In addition, the GI50 with A549 is 55 µM (inactive).
For the molecule `CN1CCC/C1=C1/C(=O)N(c2ccccc2)N=C1c1ccc[nH]1`, the GI50 is > 100 µM (inactive) with SNB-75; > 100 µM (inactive) in the assay on OVCAR-5; > 100 µM (inactive) in the assay with COLO 205; > 100 µM (inactive) with OVCAR-8; > 100 µM (inactive) in the assay on KM12; above 100 µM in the assay on HCT-15. Also, the GI50 with NCI/ADR-RES, in the assay on NCI-H522, in the assay with U-251, with K562, in the assay on HCC 2998 and in the assay with HL-60 was > 100 µM (inactive) each time. Moreover, the GI50 in the assay on Hs-578T, in the assay on T47D, in the assay with A498, in the assay with SR, in the assay on MDA-MB-435 and in the assay with A549 was > 100 µM (inactive) each time.
Regarding `NS(=O)(=O)c1ccc(NC(=S)N/C=C2\C(=O)Nc3ccccc3C2=O)cc1`, the GI50 in the assay with SNB-75, with SF-539, with OVCAR-5, in the assay with COLO 205, in the assay on OVCAR-8 and in the assay on KM12 was > 100 µM (inactive) each time. The GI50 with HCT-15 was above 100 µM; in the assay with NCI/ADR-RES it was > 100 µM (inactive); with NCI-H522, > 100 µM (inactive); in the assay on U-251, > 100 µM (inactive); with K562 it was > 100 µM (inactive); in the assay with HCC 2998, > 100 µM (inactive). The GI50 in the assay with HL-60 was 2.07 µM (inactive); in the assay on Hs-578T, > 100 µM (inactive); in the assay with T47D it was > 100 µM (inactive); with SR, > 100 µM (inactive); in the assay on HOP-92, > 100 µM (inactive); with MDA-MB-435, > 100 µM (inactive). Besides, the GI50 in the assay with A549 is > 100 µM (inactive).
As to `Cc1cc2c3ccccc3[nH]c2c2ccnc(C)c12`, the GI50 in the assay on SNB-75 was 7.28 µM (inactive); in the assay with SF-539, 2.76 µM (inactive); in the assay on OVCAR-5 it was 7.36 µM (inactive); with COLO 205, 1.94 µM (inactive); in the assay with OVCAR-8, 8.69 µM (inactive); in the assay on KM12 it was 10.6 µM (inactive). Besides, the GI50 in the assay on HCT-15 was 2.34 µM; in the assay on NCI/ADR-RES, 14.7 µM (inactive); with NCI-H522 it was 2.65 µM (inactive); in the assay with U-251, 2.24 µM (inactive); in the assay on K562, 2.22 µM (inactive); with HCC 2998, 2.87 µM (inactive). Also, the GI50 with HL-60 is 2.07 µM (inactive); with Hs-578T it was 13.6 µM (inactive); in the assay with T47D, 16.7 µM (inactive); in the assay with SR, 6.62 µM (inactive); in the assay on HOP-92, 5.11 µM (inactive); in the assay with MDA-MB-435, 1.65 µM (inactive). Besides, in the assay with A549, the GI50 was 8.28 µM (inactive).
Take `O=C(c1cccnc1)N1N=C(c2ccc(Cl)cc2)CC1(O)c1cc(F)c(Cl)cc1Cl` (configuration not stated): the GI50 in the assay on SNB-75 is 5.7 µM (inactive); with SF-539 it was 12.2 µM (inactive); with OVCAR-5, 33.7 µM (inactive); in the assay on COLO 205 it was 9.98 µM (inactive); in the assay with OVCAR-8, 25.1 µM (inactive); in the assay on KM12, 28.8 µM (inactive). The GI50 in the assay on HCT-15 was 13.6 µM; in the assay on NCI/ADR-RES, 16 µM (inactive); with NCI-H522 it was 19.5 µM (inactive); in the assay on U-251, 14.3 µM (inactive); in the assay on K562, 16.6 µM (inactive); in the assay with HL-60, 15.1 µM (inactive). Moreover, the GI50 in the assay with Hs-578T is 29.4 µM (inactive); with T47D it was 2.39 µM (inactive); in the assay on SR, 8.85 µM (inactive); in the assay on HOP-92, 17.5 µM (inactive); in the assay on MDA-MB-435 it was 15.9 µM (inactive); with A549, 24.9 µM (inactive).
On to `C=C(C)CNC(=S)N(N)c1ccc(OC)cc1`, for which the GI50 with SNB-75 was 99.8 µM (inactive); in the assay on SF-539, > 100 µM (inactive); with OVCAR-5 it was > 100 µM (inactive); in the assay with COLO 205 it was > 100 µM (inactive); with OVCAR-8, > 100 µM (inactive); in the assay with KM12 it was 39.2 µM (inactive). The GI50 with HCT-15 is 21.8 µM; in the assay with NCI/ADR-RES it was > 100 µM (inactive); in the assay on NCI-H522, 56.1 µM (inactive); with U-251, > 100 µM (inactive); in the assay on K562, 39.6 µM (inactive); with HCC 2998 it was > 100 µM (inactive). For the same molecule, the GI50 was > 100 µM (inactive) with HL-60; > 100 µM (inactive) in the assay with Hs-578T; > 100 µM (inactive) in the assay on T47D; > 100 µM (inactive) in the assay on SR; > 100 µM (inactive) in the assay on HOP-92; 54.8 µM (inactive) in the assay with MDA-MB-435. For the same molecule, in the assay on A549, the GI50 was > 100 µM (inactive).
For the molecule `O=C(O)Cn1ccc(=O)c2cc([N+](=O)[O-])ccc21`, the GI50 with SNB-75 is > 100 µM (inactive); in the assay on SF-539, > 100 µM (inactive); with OVCAR-5, > 100 µM (inactive); in the assay on COLO 205, 48.8 µM (inactive); in the assay with OVCAR-8, > 100 µM (inactive); in the assay on KM12 it was > 100 µM (inactive). The GI50 was above 100 µM with HCT-15; > 100 µM (inactive) with NCI/ADR-RES; > 100 µM (inactive) in the assay on NCI-H522; > 100 µM (inactive) with U-251; > 100 µM (inactive) with K562; > 100 µM (inactive) in the assay with HCC 2998. The GI50 in the assay with HL-60 was > 100 µM (inactive); in the assay with Hs-578T it was > 100 µM (inactive); with T47D, 33.1 µM (inactive); in the assay on A498, > 100 µM (inactive); with SR, > 100 µM (inactive); with MDA-MB-435, > 100 µM (inactive). Besides, the GI50 with A549 is > 100 µM (inactive).
Take `Cc1csc2c1-n1cccc1C2=O`: the GI50 was > 100 µM (inactive) with SNB-75; > 100 µM (inactive) with OVCAR-5; > 100 µM (inactive) with COLO 205; > 100 µM (inactive) in the assay on OVCAR-8; > 100 µM (inactive) with KM12; above 100 µM in the assay on HCT-15. The GI50 in the assay on NCI/ADR-RES, with NCI-H522, in the assay on U-251, in the assay with K562, with HCC 2998 and in the assay on Hs-578T was > 100 µM (inactive) in each case. The GI50 was > 100 µM (inactive) with T47D; 36 µM (inactive) in the assay on A498; > 100 µM (inactive) in the assay with SR; 67.3 µM (inactive) with MDA-MB-435; > 100 µM (inactive) in the assay with A549.

In general, GI50 refers to the concentration at which growth is held to half of that of the control.
